Results from ChEMBL document CHEMBL5032530, “Discovery of Benzocyclic Sulfone Derivatives as Potent CXCR2 Antagonists for Cancer Immunotherapy” (J Med Chem, 2021).
pIC50: −log10 of the molar value. Calls of active or inactive are those of the source. The rule behind the calls is not given here.

Key:
[1] = biological target: C-X-C chemokine receptor type 3 (Homo sapiens) (UniProt P49682); assay: Agonist activity against CXCR3 (unknown origin) assessed as induction of beta-arrestin 2 recruitment at 10 microM by beta arrestin assay relative to control; format: functional
Sequence of C-X-C chemokine receptor type 3 (Homo sapiens) (P49682 whole entry): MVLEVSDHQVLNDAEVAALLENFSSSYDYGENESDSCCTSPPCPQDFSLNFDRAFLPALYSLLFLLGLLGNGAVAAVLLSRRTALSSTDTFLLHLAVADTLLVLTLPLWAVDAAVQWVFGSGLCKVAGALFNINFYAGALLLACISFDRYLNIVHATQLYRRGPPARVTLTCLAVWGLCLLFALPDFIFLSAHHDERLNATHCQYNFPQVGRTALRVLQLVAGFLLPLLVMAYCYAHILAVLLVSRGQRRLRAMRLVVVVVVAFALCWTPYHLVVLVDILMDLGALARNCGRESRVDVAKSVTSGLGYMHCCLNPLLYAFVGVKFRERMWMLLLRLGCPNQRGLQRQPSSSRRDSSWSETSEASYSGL

[2] = tested on: Panc02; assay: Antitumour activity against mouse Panc02 cells xenografted in mouse assessed as reduction in infiltration of neutrophils into tumor tissue at 30 mg/kg, po bid measured after 15 days by immunohistochemical analysis; format: functional, organism-based; conditions: time 15.0 day
[3] = biological target: C-C chemokine receptor type 9 (Homo sapiens) (UniProt P51686); assay: Antagonist activity against CCR9 (unknown origin) assessed as inhibition of beta-arrestin 2 recruitment at 10 microM by beta arrestin assay relative to control; format: functional; set-up: scale not given: the % may be the effect or the level left
Sequence of C-C chemokine receptor type 9 (Homo sapiens) (P51686 whole entry): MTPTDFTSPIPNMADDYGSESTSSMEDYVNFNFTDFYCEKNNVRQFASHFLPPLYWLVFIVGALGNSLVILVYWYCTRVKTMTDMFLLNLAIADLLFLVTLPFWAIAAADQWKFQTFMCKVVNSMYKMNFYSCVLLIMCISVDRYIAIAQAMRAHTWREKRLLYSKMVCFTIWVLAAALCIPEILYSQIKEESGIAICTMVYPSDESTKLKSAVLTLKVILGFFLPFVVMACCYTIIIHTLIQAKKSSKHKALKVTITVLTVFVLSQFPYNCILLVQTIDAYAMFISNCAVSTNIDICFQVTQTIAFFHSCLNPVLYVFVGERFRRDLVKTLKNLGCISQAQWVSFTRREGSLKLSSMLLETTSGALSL

[4] = biological target: C-X-C chemokine receptor type 6 (Homo sapiens) (UniProt O00574); assay: Antagonist activity against CXCR6 (unknown origin) assessed as inhibition of beta-arrestin 2 recruitment at 10 microM by beta arrestin assay relative to control; format: functional; set-up: scale not given: the % may be the effect or the level left
Sequence of C-X-C chemokine receptor type 6 (Homo sapiens) (O00574 whole entry, looked up): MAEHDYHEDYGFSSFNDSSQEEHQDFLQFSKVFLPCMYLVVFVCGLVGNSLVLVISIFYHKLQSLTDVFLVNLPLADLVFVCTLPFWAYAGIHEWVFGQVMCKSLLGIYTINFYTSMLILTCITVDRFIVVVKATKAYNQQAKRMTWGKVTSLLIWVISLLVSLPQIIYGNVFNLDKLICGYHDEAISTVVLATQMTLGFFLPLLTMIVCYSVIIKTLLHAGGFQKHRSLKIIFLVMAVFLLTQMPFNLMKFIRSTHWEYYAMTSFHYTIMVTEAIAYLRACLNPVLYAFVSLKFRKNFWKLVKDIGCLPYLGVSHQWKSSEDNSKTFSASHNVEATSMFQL

[5] = biological target: C-C chemokine receptor type 4 (Homo sapiens) (UniProt P51679); assay: Antagonist activity against CCR4 (unknown origin) assessed as inhibition of beta-arrestin 2 recruitment at 10 microM by beta arrestin assay relative to control; format: functional; set-up: scale not given: the % may be the effect or the level left
Sequence of C-C chemokine receptor type 4 (Homo sapiens) (P51679 whole entry): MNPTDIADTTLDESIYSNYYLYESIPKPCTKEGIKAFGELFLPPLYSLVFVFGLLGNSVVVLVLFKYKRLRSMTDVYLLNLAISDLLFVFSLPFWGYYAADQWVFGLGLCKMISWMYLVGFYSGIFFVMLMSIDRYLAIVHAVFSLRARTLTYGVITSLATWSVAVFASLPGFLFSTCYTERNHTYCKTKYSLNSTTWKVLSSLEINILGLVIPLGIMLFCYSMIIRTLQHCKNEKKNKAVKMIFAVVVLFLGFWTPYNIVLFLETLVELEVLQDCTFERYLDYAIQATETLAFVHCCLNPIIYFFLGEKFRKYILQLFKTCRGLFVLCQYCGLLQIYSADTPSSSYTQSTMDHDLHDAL

[6] = tested on: Panc02; assay: Antitumour activity against mouse Panc02 cells xenografted in mouse assessed as reduction in infiltration of neutrophils into tumor tissue at 3 mg/kg, po bid measured after 15 days by flow cytometry analysis; format: functional, organism-based; conditions: time 15.0 day
[7] = tested on: Panc02; assay: Antitumour activity against mouse Panc02 cells xenografted in mouse assessed as reduction in infiltration of granulocytic MDSCs into tumor tissue at 30 mg/kg, po bid measured after 15 days by immunohistochemical analysis; format: functional, organism-based; conditions: time 15.0 day
[8] = tested on: Panc02; assay: Antitumour activity against mouse Panc02 cells xenografted in mouse assessed as change in CD45 expressing immune cells infiltration into tumor tissue at 30 mg/kg, po bid measured after 15 days by flow cytometry analysis (reference value: 2.3%); format: functional; conditions: time 15 day
[9] = tested on: Panc02; assay: Antitumour activity against mouse Panc02 cells xenografted in mouse assessed as tumour growth inhibition at 10 mg/kg, po bid […]; format: functional; conditions: read-out: TGI
[10] = tested on: PANC-1; assay: Cytotoxicity against human PanC-1 cells assessed as reduction in cell viability measured after 72 hrs by CCK8 assay; format: cell-based; conditions: PANC-1, 72 h
[11] = tested on: Panc02; assay: Antitumour activity against mouse Panc02 cells xenografted in mouse assessed as change in CD45 expressing immune cells infiltration into tumor tissue at 10 mg/kg, po bid measured after 15 days by flow cytometry analysis (reference value: 2.3%); format: functional; conditions: time 15 day
[12] = biological target: C-X-C chemokine receptor type 1 (Homo sapiens) (UniProt P25024); assay: Agonist activity against CXCR1 (unknown origin) assessed as induction of beta-arrestin 2 recruitment at 10 microM by beta arrestin assay relative to control; format: functional
Sequence of C-X-C chemokine receptor type 1 (Homo sapiens) (P25024 whole entry): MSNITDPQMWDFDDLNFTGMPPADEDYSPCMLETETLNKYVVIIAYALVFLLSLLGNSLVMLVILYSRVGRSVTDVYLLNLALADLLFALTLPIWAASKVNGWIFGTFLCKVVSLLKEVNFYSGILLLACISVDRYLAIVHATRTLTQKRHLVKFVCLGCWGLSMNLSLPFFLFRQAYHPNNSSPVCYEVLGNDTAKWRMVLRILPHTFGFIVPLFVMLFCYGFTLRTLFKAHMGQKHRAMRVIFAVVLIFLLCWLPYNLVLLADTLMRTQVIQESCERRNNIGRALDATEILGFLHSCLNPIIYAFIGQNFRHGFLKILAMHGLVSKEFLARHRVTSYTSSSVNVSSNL

[13] = tested on: MIA PaCa-2; assay: Cytotoxicity against human MIA PaCa-2 cells assessed as reduction in cell viability measured after 72 hrs by CCK8 assay; format: cell-based; conditions: MIA PaCa-2, 72 h
[14] = biological target: CX3C chemokine receptor 1 (Homo sapiens) (UniProt P49238); assay: Agonist activity against CX3CR1 (unknown origin) assessed as induction of beta-arrestin 2 recruitment at 10 microM by beta arrestin assay relative to control; format: functional
Sequence of CX3C chemokine receptor 1 (Homo sapiens) (P49238 whole entry): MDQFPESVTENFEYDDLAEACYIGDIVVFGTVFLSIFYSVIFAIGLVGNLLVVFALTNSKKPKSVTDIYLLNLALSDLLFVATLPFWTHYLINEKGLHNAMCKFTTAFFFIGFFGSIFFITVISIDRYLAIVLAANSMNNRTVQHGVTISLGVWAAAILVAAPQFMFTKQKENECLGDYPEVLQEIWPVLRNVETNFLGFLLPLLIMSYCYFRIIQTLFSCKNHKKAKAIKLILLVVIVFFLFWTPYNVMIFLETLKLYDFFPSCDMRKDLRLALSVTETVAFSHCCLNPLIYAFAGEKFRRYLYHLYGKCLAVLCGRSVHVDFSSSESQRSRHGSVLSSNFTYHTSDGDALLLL

[15] = biological target: C-C chemokine receptor type 6 (Homo sapiens) (UniProt P51684); assay: Agonist activity against CCR6 (unknown origin) assessed as induction of beta-arrestin 2 recruitment at 10 microM by beta arrestin assay relative to control; format: functional
Sequence of C-C chemokine receptor type 6 (Homo sapiens) (P51684 whole entry): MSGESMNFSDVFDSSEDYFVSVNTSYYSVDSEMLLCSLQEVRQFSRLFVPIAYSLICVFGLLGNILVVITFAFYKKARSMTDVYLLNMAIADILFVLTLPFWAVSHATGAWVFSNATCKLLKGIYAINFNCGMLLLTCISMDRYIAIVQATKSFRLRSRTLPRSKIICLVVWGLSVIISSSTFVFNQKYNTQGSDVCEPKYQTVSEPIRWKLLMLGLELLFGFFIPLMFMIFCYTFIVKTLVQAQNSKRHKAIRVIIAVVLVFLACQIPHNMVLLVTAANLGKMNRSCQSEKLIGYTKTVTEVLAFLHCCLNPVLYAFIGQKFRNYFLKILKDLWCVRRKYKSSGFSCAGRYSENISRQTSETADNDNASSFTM

[16] = tested on: Panc02; assay: Antitumour activity against mouse Panc02 cells xenografted in mouse assessed as change in CD11b expressing immune cells infiltration into tumor tissue using LY6G antibody at 10 mg/kg, po bid measured after 15 days by flow cytometry analysis (reference value: 29.7%); format: functional; conditions: time 15 day
[17] = biological target: C-C chemokine receptor type 1 (Homo sapiens) (UniProt P32246); assay: Antagonist activity against CCR1 (unknown origin) assessed as inhibition of beta-arrestin 2 recruitment at 10 microM by beta arrestin assay relative to control; format: functional; set-up: scale not given: the % may be the effect or the level left; conditions: filed as antagonist
Sequence of C-C chemokine receptor type 1 (Homo sapiens) (P32246 whole entry): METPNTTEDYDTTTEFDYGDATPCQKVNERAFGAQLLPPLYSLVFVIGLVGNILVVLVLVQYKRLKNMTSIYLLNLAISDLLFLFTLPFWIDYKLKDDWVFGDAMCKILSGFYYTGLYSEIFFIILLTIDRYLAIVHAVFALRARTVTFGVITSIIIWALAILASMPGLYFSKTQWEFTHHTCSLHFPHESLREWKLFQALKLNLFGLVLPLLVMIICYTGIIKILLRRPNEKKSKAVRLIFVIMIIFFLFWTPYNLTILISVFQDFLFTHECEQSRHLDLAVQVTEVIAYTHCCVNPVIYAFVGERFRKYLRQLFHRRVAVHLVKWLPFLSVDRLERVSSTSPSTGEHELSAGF

[18] = AUC (0 to infinity) in ICR mouse at 3 mg/kg, iv measured upto 48 hrs; format: ADME, organism-based; set-up: route intravenous, dose 3 mg/kg, time <=48; conditions: in vivo
[19] = biological target: Atypical chemokine receptor 3 (Homo sapiens) (UniProt P25106); assay: Antagonist activity against CXCR7 (unknown origin) assessed as inhibition of beta-arrestin 2 recruitment at 10 microM by beta arrestin assay relative to control; format: functional; set-up: scale not given: the % may be the effect or the level left
Sequence of Atypical chemokine receptor 3 (Homo sapiens) (P25106 whole entry): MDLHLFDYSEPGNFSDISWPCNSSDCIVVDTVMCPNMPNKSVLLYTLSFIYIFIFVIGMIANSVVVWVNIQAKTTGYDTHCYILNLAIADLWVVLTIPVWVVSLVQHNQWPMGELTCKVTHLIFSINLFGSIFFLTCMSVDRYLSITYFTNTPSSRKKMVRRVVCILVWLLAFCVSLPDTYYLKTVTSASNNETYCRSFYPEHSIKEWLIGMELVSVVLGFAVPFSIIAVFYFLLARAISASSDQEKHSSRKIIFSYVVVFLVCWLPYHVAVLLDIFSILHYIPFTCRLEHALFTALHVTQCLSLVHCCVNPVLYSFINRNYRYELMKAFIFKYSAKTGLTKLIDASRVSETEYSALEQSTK

[20] = biological target: C-C chemokine receptor type 2 (Homo sapiens) (UniProt P41597); assay: Agonist activity against CCR2 (unknown origin) assessed as induction of beta-arrestin 2 recruitment at 10 microM by beta arrestin assay relative to control; format: functional
Sequence of C-C chemokine receptor type 2 (Homo sapiens) (P41597 whole entry, looked up): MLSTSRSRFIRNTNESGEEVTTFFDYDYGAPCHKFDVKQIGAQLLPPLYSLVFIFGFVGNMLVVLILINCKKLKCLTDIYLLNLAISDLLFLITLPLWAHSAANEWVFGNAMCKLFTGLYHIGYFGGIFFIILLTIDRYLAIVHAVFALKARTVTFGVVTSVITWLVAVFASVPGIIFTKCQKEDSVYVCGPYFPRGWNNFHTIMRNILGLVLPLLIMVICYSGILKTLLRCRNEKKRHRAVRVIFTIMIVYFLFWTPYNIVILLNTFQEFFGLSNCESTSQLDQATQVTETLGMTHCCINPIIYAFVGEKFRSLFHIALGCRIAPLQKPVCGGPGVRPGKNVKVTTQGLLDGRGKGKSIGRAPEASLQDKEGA

[21] = biological target: C-X-C chemokine receptor type 2 (Homo sapiens) (UniProt P25025); assay: Antagonist activity against CXCR2 (unknown origin) assessed as inhibition of beta-arrestin 2 recruitment at 10 microM by beta arrestin assay relative to control; format: functional; set-up: scale not given: the % may be the effect or the level left; conditions: filed as antagonist
Sequence of C-X-C chemokine receptor type 2 (Homo sapiens) (P25025 whole entry): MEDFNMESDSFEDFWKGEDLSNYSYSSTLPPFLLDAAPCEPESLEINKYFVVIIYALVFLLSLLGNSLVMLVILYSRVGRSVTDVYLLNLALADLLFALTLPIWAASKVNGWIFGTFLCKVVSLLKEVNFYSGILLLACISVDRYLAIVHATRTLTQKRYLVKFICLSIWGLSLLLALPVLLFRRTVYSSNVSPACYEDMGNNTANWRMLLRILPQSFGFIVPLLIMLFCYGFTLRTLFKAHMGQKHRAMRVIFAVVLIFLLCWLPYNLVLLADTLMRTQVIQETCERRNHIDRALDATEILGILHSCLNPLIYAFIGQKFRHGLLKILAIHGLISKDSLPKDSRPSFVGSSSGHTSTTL

[22] = biological target: C-X-C chemokine receptor type 3 (Homo sapiens) (UniProt P49682); assay: Antagonist activity against CXCR3 (unknown origin) assessed as inhibition of beta-arrestin 2 recruitment at 10 microM by beta arrestin assay relative to control; format: functional; set-up: scale not given: the % may be the effect or the level left
[23] = Clearance in ICR mouse at 3 mg/kg, iv measured upto 48 hrs; format: ADME, organism-based; conditions: in vivo
[24] = tested on: Panc02; assay: Antitumour activity against mouse Panc02 cells xenografted in mouse assessed as upregulation of infiltration of CD3+ T cell into tumor tissue treated po twice a day measured after 15 days by immunohistochemical analysis; format: functional, organism-based; conditions: dose 10-30 mg/kg, time 15.0 day
[25] = tested on: Neutrophil; assay: In vivo antagonist activity at CXCR2 in carrageenan-induced C57BL/6 mouse air pouch inflammation model assessed as reduction in neutrophil infiltration into air pouch at 30 mg/kg, po bid administered after 3 days of carrageenan treatment for 3 days; format: functional, organism-based; conditions: time 3.0 day
[26] = biological target: C-X-C chemokine receptor type 5 (Homo sapiens) (UniProt P32302); assay: Agonist activity against CXCR5 (unknown origin) assessed as induction of beta-arrestin 2 recruitment at 10 microM by beta arrestin assay relative to control; format: functional
Sequence of C-X-C chemokine receptor type 5 (Homo sapiens) (P32302 whole entry): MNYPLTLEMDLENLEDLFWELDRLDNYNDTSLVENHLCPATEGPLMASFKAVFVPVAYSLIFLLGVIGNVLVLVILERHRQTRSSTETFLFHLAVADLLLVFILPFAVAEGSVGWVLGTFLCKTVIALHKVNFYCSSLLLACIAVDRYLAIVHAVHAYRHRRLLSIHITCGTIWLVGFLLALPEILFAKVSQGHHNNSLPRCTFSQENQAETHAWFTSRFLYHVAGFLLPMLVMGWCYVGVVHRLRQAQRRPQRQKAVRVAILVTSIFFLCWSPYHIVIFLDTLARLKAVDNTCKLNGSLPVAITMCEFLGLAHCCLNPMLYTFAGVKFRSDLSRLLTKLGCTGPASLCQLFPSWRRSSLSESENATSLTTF

[27] = tested on: Panc02; assay: Antitumour activity against mouse Panc02 cells xenografted in mouse assessed as change in Gr1 expressing immune cells infiltration into tumor tissue at 30 mg/kg, po bid measured after 15 days by flow cytometry analysis (reference value: 27.4%); format: functional; conditions: time 15 day
[28] = biological target: C-X-C chemokine receptor type 2 (Homo sapiens) (UniProt P25025); assay: Agonist activity against CXCR2 (unknown origin) assessed as induction of beta-arrestin 2 recruitment at 10 microM by beta arrestin assay relative to control; format: functional
[29] = tested on: Panc02; assay: Antitumour activity against mouse Panc02 cells xenografted in mouse assessed as change in Gr1 expressing immune cells infiltration into tumor tissue at 10 mg/kg, po bid measured after 15 days by flow cytometry analysis (reference value: 27.4%); format: functional; conditions: time 15 day
[30] = biological target: C-X-C chemokine receptor type 5 (Homo sapiens) (UniProt P32302); assay: Antagonist activity against CXCR5 (unknown origin) assessed as inhibition of beta-arrestin 2 recruitment at 10 microM by beta arrestin assay relative to control; format: functional; set-up: scale not given: the % may be the effect or the level left
[31] = Cmax in ICR mouse at 30 mg/kg, po measured upto 48 hrs; format: ADME, organism-based; set-up: route oral, dose 30 mg/kg, time <=48; conditions: in vivo
[32] = tested on: Panc02; assay: Cytotoxicity against mouse Panc02 cells assessed as reduction in cell viability measured after 72 hrs by CCK8 assay; format: cell-based; conditions: panc02, 72 h
[33] = Clearance in ICR mouse at 30 mg/kg, po measured upto 48 hrs; format: ADME, organism-based; conditions: ICR, in vivo
[34] = tested on: BXPC-3; assay: Cytotoxicity against human BxPC3 cells assessed as reduction in cell viability measured after 72 hrs by CCK8 assay; format: cell-based; conditions: BXPC-3, 72 h

Activity [1]: < 10%
Activity [3]: 14%
Activity [4]: 17%
Activity [5]: 10%
Activity [12]: < 10%
Activity [14]: < 10%
Activity [15]: < 10%
Activity [17]: 49%
AUC(0-inf) [18]: 365 ng·h/mL
Activity [19]: 15%
Activity [20]: < 10%
Activity [21]: 109%
Activity [22]: < 10%
clearance [23]: 137 mL/min/kg
Activity [26]: < 10%
Activity [28]: < 10%
Activity [30]: 11%
Cmax [31]: 19 ng/mL
CL/F [33]: 2190 mL/min/kg
Structure (SMILES): Cc1c(F)cccc1NC(=O)Nc1ccc2c(c1O)S(=O)(=O)CCC2
Activity [2]: Active
Activity [6]: Active
Activity [7]: Active
Activity [8]: 42.3%
inhibition in vivo at 10 mg/kg [9]: 42.5%
pIC50 [10]: < 5.00
Activity [11]: 30.3%
pIC50 [13]: < 5.00
Activity [16]: 14%
Activity [24]: Dose-Dependent Effect
Activity [25]: Active
Activity [27]: 7.5%
Activity [29]: 11.2%
Activity [32]: Non-Toxic
pIC50 [34]: < 5.00
